Legend:
CB2 = molecular target: T1, CB2 (Homo sapiens, UniProt P34972); assay: NanoLuc complementation beta-arrestin […] recruitment, live cells; type: cell-based; details: read-out: CB2 / EC50 (nM) (± 95% CI)
T1 construct: gene CNR2; co-expressed with beta-arrestin 2 fused to the complementary fragment

CB1 = molecular target: T2, CB1 (Homo sapiens, UniProt P21554); assay: as above; type: cell-based; details: read-out: CB1 / EC50 (nM) (± 95% CI)
T2 construct: gene CNR1; co-expressed with beta-arrestin 2 fused to the complementary fragment
T2 sequence (P21554 whole entry, the tested form may be a part): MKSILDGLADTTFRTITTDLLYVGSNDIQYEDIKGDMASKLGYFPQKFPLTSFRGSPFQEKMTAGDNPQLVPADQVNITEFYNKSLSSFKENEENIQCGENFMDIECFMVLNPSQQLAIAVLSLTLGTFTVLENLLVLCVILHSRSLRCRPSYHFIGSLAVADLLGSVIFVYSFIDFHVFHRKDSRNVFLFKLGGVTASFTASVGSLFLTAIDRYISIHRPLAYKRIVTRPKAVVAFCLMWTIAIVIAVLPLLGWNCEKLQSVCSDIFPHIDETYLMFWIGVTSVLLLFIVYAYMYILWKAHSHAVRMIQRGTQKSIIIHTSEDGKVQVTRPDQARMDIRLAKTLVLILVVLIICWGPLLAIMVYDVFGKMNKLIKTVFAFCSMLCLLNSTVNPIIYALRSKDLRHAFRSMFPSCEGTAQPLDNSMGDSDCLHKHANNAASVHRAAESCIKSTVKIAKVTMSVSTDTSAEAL

T1 sequence (P34972 whole entry, the tested form may be a part): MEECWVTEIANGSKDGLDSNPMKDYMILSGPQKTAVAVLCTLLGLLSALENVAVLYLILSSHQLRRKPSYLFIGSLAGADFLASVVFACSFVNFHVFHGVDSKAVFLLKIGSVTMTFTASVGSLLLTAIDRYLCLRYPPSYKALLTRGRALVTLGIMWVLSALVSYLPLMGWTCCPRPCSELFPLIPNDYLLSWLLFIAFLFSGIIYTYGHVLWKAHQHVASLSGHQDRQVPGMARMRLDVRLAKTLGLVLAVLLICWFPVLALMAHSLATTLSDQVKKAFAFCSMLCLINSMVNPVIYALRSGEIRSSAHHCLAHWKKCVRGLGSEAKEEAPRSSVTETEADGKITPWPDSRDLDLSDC

## CC(C)[C@@H](NC(=O)c1nn(Cc2ccc(F)cc2)c2ccccc12)C(N)=O [compound 1, (R)-AB-FUBINACA]
CB2
  EC50: 102 nM
CB1
  EC50: 1480 nM

## CC(C)[C@H](NC(=O)c1nn(Cc2ccc(F)cc2)c2ccccc12)C(N)=O [compound 1, N-(2S)-(1-amino-3-methyl-1-oxobutan-2-yl)-1-(4-fluorobenzyl)-1H-indazole-3-carboxamide]
CB2
  EC50: 1.6 nM
CB1
  EC50: 12.9 nM

## COC(=O)[C@H](NC(=O)c1nn(Cc2ccc(F)cc2)c2ccccc12)C(C)C [compound 2, (R)-AMB-FUBINACA]
CB2
  EC50: 1.19 nM
CB1
  EC50: 55.8 nM

## COC(=O)[C@@H](NC(=O)c1nn(Cc2ccc(F)cc2)c2ccccc12)C(C)C [compound 2, methyl (2S)-2-(1-(4-fluorobenzyl)-1H-indazole-3-carboxamido)-3-methylbutanoate]
CB2
  EC50: 0.77 nM
CB1
  EC50: 9.11 nM

## COC(=O)[C@H](NC(=O)c1nn(CCCCCF)c2ccccc12)C(C)(C)C [compound 3, (R)-5F-MDMB-PINACA]
CB2
  EC50: 6.87 nM
CB1
  EC50: 131 nM

## COC(=O)[C@@H](NC(=O)c1nn(CCCCCF)c2ccccc12)C(C)(C)C [compound 3, (S)-5F-MDMB-PINACA]
CB2
  EC50: 1.46 nM
CB1
  EC50: 1.78 nM

## CC(C)[C@@H](NC(=O)c1nn(CC2CCCCC2)c2ccccc12)C(N)=O [compound 4, (R)-AB-CHMINACA]
CB2
  EC50: 33.6 nM
CB1
  EC50: 319 nM

## CC(C)[C@H](NC(=O)c1nn(CC2CCCCC2)c2ccccc12)C(N)=O [compound 4, N-(2S)-(1-amino-3-methyl-1-oxobutan-2-yl)-1-(cyclohexylmethyl)-1H-indazole-3-carboxamide]
CB2
  EC50: 1.75 nM
CB1
  EC50: 6.16 nM

## CCCCCn1cc(C(=O)c2cccc3ccccc23)c2ccccc21 [compound 19, JWH-018, reference compound]
CB2
  EC50: 9.71 nM
CB1
  EC50: 45.1 nM

From PMC6532652, “Enantiospecific Synthesis, Chiral Separation, and Biological Activity of Four Indazole-3-Carboxamide-Type Synthetic Cannabinoid Receptor Agonists and Their Detection in Seized Drug Samples” (Frontiers in Chemistry, 2019)
